Assays:
Format in all cases: cell-based, human
K562 = assay: TUNEL / propidium iodide flow cytometry, K562; details: taurolidine 100 μg/ml or anisomycin 1 μg/ml for 4 h, assayed at 24 hours, mean ± SD
Procedure: In the second method, DNA fragmentation was detected via TUNEL assay according to the manufacturer's instructions. With this methodology, 2×10^6 cells were fixed with 2% paraformaldehyde, permeabilized with 0.1% Triton X-100/0.1% citrate, incubated at 37° C. with terminal deoxynucleotidyl transferase and FITC-dUTP, rinsed and analyzed by flow cytometry. Enhanced FITC signal indicates apoptosis-specific DNA fragmentation. Gavriali, et al, "Identification of programmed cell death in situ via specific labeling of nuclear DNA fragmentation," J Cell Biol 119:493 (1992). Parallel aliquots of unfixed cells were treated with PI and FITC-conjugated anti-CD14 and analyzed by flow cytometry, in order to identify cells with permeable cell membranes (since PI binds to DNA but is excluded from cells with intact plasma membranes) and also to determine the cell-specificity of the apoptotic signal.
In another study, TUNEL assays were performed on all cell lines 6 hours after cells were initially exposed to taurolidine (cells were treated for 4 hours, rinsed, and then incubated for 2 more hours before TUNEL assay was performed).
. Taurolidine and anisomycin induced apoptosis in MM6, HL-60, and Jurkat cells (Table VIII). MM6 and HL-60 cells were similarly effected, with >80% TUNEL-positive cells after 6 hours. Jurkat cells were less sensitive, with approximately 50% of cells induced to undergo apoptosis after taurolidine treatment. After 6 hours, 73% of anisomycin-treated REH cells were apoptotic, with less than 20% of taurolidine-treated REH cells being TUNEL-positive. However, assay of cells 24 hours after
^a Analysis by flow cytometry after staining cells with propidium
iodide and processing for TUNEL.
Data are percent of total cell-size events, and are expressed as mean ±
Cells were treated for 4 hours with taurolidine (100 μg/ml) or
anisomycin (1 μg/ml), and then assayed at 6 hours.
Data are percent of total cell-sized events, and are expressed as mean ±
anisomycin (1 μg/ml), and then assayed at 24 hours.

tissue factor (TF) = assay: LPS-induced tissue factor (TF) expression in PBMC, ELISA
Procedure: FIG. 2A represents MM6 cells; FIG. 2B represents PBMC. The cells were induced with LPS (hatched bars: 100 ng/ml LPS in RPMI supplemented with 10% BCS (RPMI+10% BCS); solid bars: 10 ng/ml in AIM-V+0.01% BCS) in the presence of varying concentrations of taurolidine,or with a dilution of the vehicle equivalent to that given to cells receiving 100 μg/ml taurolidine. After four hours, cells were collected and lysates were prepared for TF ELISA. Data are expressed as percent of TF antigen measured in cells treated with LPS alone (no taurolidine or vehicle). Experiments were performed with duplicate samples and were repeated at least three times. Values shown are mean±SEM of all experiments.
For induction of TF or TNFα expression, MM6 cells or PBMC were cultured either in RPMI supplemented with 10% BCS or in AIM-V+0.01% BCS, and stimulated by adding LPS to final concentrations of 10 to 100 ng/ml. […] Except as noted, taurolidine and LPS were added to the cell cultures simultaneously. For TF determination, cells and culture media together were treated by adding Triton X-100 (1% final) and EDTA (7 mmol/L final), and the resulting lysates assayed by ELISA. […] For TNFα determination, cells were removed by centrifugation for 5 min at 250×g, and the supernatants were assayed by ELISA.

HL-60 = assay: growth rate after taurolidine treatment, HL-60
Procedure: FIGS. 7A and 7B depict cell viability and growth rates for HL-60 cell line following taurolidine treatment, in terms of % trypan blue negative cells and % cell number, respectively. Cells were treated with various concentrations of taurolidine for 4 hours in AIM-V+0.01% BCS. After aliquots were collected for LDH assay, the remainder of the culture was rinsed in HBSS and resuspended in RPMI+10% BCS without taurolidine. Counts of trypan blue-negative cells (FIG. 7A), and total cell number (FIG. 7B), were recorded daily thereafter (with the measurement at Day 1 being made immediately after the 4 hour taurolidine treatment). Conditions were: no treatment (open circles); 25 μg/ml taurolidine (closed circles); 50 μg/ml taurolidine (open squares); 100 μg/ml taurolidine (closed squares); and vehicle alone (closed triangles). Doubling times were determined under each condition, and expressed as a percentage of the rate of doubling of untreated cells. These values are located to the right of the growth curves in (FIG. 7B). Cells were subcultured when they reached a concentration of 6×10^5 cells/ml. Data are mean±SEM of three experiments.
In these experiments, integrity of cell membranes following taurolidine treatment was assessed by exclusion of trypan blue and by measuring the release of LDH in MM6, K-562, HL-60, and REH cells. Since BCS contains significant amounts of LDH, these experiments were conducted on cells cultured in AIM-V+0.01% BCS. […] A parallel aliquot of cells was lysed by three cycles of freeze/thaw and the quantity of LDH released was taken to be 100%. […]
HL-60 cells treated with 50 μl taurolidine. In these samples, LDH present in the culture medium was 8.3±2.3% of that released by completely lysed cells, compared with 2.3±0.8% measured in control cultures. […] After 4 hour treatment, cells were rinsed and returned to growth medium and monitored for viability and growth over the following 3 days. […]
^b Growth rate was measured over three days following treatment.

O=S1(=O)CCN(CN2CCS(=O)(=O)NC2)CN1 [taurolidine, 4,4'-methylenebis(perhydro-1,2,4-thiadiazin 1,1-dioxide)]
% TUNEL-positive (K562): approximately 20% | inhibition of LPS-induced TF expression (tissue factor (TF); PBMC, taurolidine 75 μg/ml, 4 h): complete inhibition of TF expression | induction of TF in response to LPS (summary) (tissue factor (TF); peripheral blood monocytes or cultured MM6 cells): strongly inhibited the induction of TF | sensitivity of cell growth among cell lines (HL-60; HL-60): most inhibited | activity at 50 µg/mL (HL-60; Homo sapiens, 72 h, HL-60, 50 μg/ml for 4 h, growth over three days, read-out: growth rate (% of control)): 0% | activity at 100 µg/mL (HL-60; Homo sapiens, 72 h, HL-60, 100 μg/ml for 4 h, growth over three days, read-out: growth rate (% of control)): 3%
